Legend:
[1] = molecular target: Dihydrofolate reductase (Trypanosoma cruzi); test: Inhibitory activity against Trypanosoma cruzi dihydrofolate reductase
[2] = molecular target: Dihydrofolate reductase (Trypanosoma cruzi); test: as above; remark: listed apart in the source

| Ki [1] | Ki [2] | Compound |
| --- | --- | --- |
| 0.046 µM | – | CCOC(=O)CCCCN(Cc1cnc2nc(N)nc(N)c2n1)c1ccc(C(=O)NC(CCC(=O)OCC)C(=O)OCC)cc1 (centres undefined) [2-{4-[(2,4-Diamino-pteridin-6-ylmethyl)-(4-ethoxycarbonyl-butyl)-amino]-benzoylamino}-pentanedioic acid diethyl ester] |
| 0.056 µM | – | CCOC(=O)CCCCCN(Cc1cnc2nc(N)nc(N)c2n1)c1ccc(C(=O)NC(CCC(=O)OCC)C(=O)OCC)cc1 (centres undefined) [2-{4-[(2,4-Diamino-pteridin-6-ylmethyl)-(5-ethoxycarbonyl-pentyl)-amino]-benzoylamino}-pentanedioic acid diethyl ester] |
| 0.000131 µM | – | Nc1nc(N)c2nc(CN(CCCCC(=O)O)c3ccc(C(=O)NC(CCC(=O)O)C(=O)O)cc3)cnc2n1 (centres undefined) [2-{4-[(4-Carboxy-butyl)-(2,4-diamino-pteridin-6-ylmethyl)-amino]-benzoylamino}-pentanedioic acid] |
| – | 0.000183 µM | Nc1nc(N)c2nc(CN(CCCCCC(=O)O)c3ccc(C(=O)NC(CCC(=O)O)C(=O)O)cc3)cnc2n1 (centres undefined) [2-{4-[(5-Carboxy-pentyl)-(2,4-diamino-pteridin-6-ylmethyl)-amino]-benzoylamino}-pentanedioic acid] |
